The values that follow come from patent EP4813463A2, “TYK2 INHIBITORS AND COMPOSITIONS AND METHODS THEREOF” (Lynk Pharmaceuticals Co. Ltd., priority 2023, dated 2024).

Read-outs that look alike come from different tables or passages of the source.

One series addresses T1, JAK1-JH2 domain (Homo sapiens, UniProt P23458).
T1 construct: JAK1-JH2 domain or TYK2-JH2 domain enzyme in assay buffer
The experiment in a line: Binding activity test for JH2 domain of JAK1 (Tb-antibody/tracer FRET). Conditions: JH2 domain enzyme; 60 min at 25°C, then 4°C overnight; read-out: JAK1 JH2 Binding IC50. The method, boiled down: (§1)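 Competitive TR-FRET binding: compounds dispensed as an 11-point 3-fold dilution series, then Tb-labelled antibody and tracer added to the JH2 protein system. Incubated at 25°C, then overnight at 4°C; FRET signal read on Envision and IC50 (nM) derived.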

A short description of series [1]: Microsomal metabolic stability assay. The format is in vitro ADME. To be noted: human, liver microsomes, pH 7.4, 0.5 mg/mL microsomal protein, 1 µM test article, 2 mM NADPH; for microsomal CLint at 1 µM: read-out: Human LM Clint; for half-life at 1 µM: read-out: Human LM T1/2. Here is the method: Microsomes were pre-incubated with test compound or control compounds for 5 min at 37°C in 100 mM potassium phosphate buffer, pH 7.4, 1.0 mM EDTA. The reaction was initiated by addition of 15 µL of the NADPH regenerating system to 30 µL of each incubation mixture per time point. The final incubation condition was composed of 0.5 mg/mL microsomal protein, 1 µM test article/positive control, 2 mM NADPH. The 0-minute samples were prepared by addition of a 30 µL aliquot of each incubation mixture to 135 µL quench reagent to precipitate proteins. And then a 15 µL aliquot of the NADPH regenerating system was added. At 5, 15, 30 and 45 minutes, the reaction will be stopped by the addition of cold acetonitrile solution containing internal standard. The samples taken at all time points were centrifuged at 5000×g for 15 minutes. 50 µL of supernatant are taken into 96-well assay plates pre-added with 50 µL ultrapure water, and then analyzed by LC/MS/MS.
Concentrations of test articles, control compounds in the samples were determined by using LC/MS/MS method. Plotting of the chromatograms and peak area integrations are carried out by Analyst (AB Sciex).
In the determination of the in vitro elimination constant (ke) of the control compounds, the analyte/internal standard peak area ratios will be converted to percentage remaining (%Remaining) with the following equation: %Remaining = (Peak area ratio of analyte to IS at each time point)/(Peak area ratio of analyte to IS at t = 0) × 100% [formula]
The CLint of microsomes was calculated using the formula: CLint (mic)=0.693/T1/2 /mg microsome protein per mL. The slope was measured by the natural logarithm of the percentage of the residual compound and time, T1/2 was calculated according to the following formula. T = (0.693)/(−slope) [formula]
Background: Liver microsomes are a subcellular fraction often used to study metabolism.

In another series the target is T2, TYK2-JH2 domain (Homo sapiens, UniProt P29597).
T2 construct: JAK1-JH2 domain or TYK2-JH2 domain enzyme in assay buffer
The experiment in a line: Binding activity test for JH2 domain of TYK2 (Tb-antibody/tracer FRET). To be noted: for IC50: JH2 domain enzyme, 60 min at 25°C, then 4°C overnight, read-out: TYK2 JH2 Binding IC50; for JAK1/TYK2 selectivity: ratio of JAK1 JH2 to TYK2 JH2 binding IC50. The method, boiled down:
as §1

Series [2] concerns Ba/F3-FL-TYK2-P760L cells. The experiment in a line: Anti-proliferative assay in engineered Ba/F3 cells (Cell-Titer Glo, 72 h). The format is cell-based. To be noted: 72 h compound treatment, concentration that causes 50% growth inhibition, read-out: Baf3-FL-T2P760L. The essentials: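 Ba/F3 cells carrying Tel-dimerization/JAK kinase fusion, IL-3-independent, in RPMI-1640 + 10% FBS; 9-point 3-fold dilutions from 20 µM (0.1% DMSO) added after 24 h, 72 h at 37 °C. Viability by Cell-Titer Glo ATP luminescence; % inhibition versus DMSO cells, blank-corrected, giving IC50.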

The next series has as its system pSTAT1. Nature of the series: Phosphorylation inhibition of STAT in human whole blood (IFN-alpha stimulated, flow cytometry). It counts as cell-based. Conditions: T-cell, 20 min, IFN-alpha stimulation 20 mins, CD3 T cells, read-out: pSTAT1 inhibition in hWB (IC50). Here is the method:
The inhibitory potential of test articles in human whole blood assay was evaluated by the method of flow cytometry.
IFN-alpha will activate JAK1 and TYK2 kinase in T cells by binding to IFN receptors, and then lead to phosphorylation of STAT1 and STAT2. The phosphorylated STAT1 enter nuclear and promote transcription and expression of IFN-gamma. To evaluate the efficacy of TYK2i in T cells, freshly collected human whole blood will be stimulated with certain unit of human IFN-alpha (Universal Type I IFN(1MU), R&D, 11200-2) for 20 mins in incubator. After stimulation, fix cells with Phosflow™ Fix Buffer I (BD, 557870), and then collect fixed cells by centrifugation (500 g, 8min). Wash cells once with pre-cooled PBS, and then permeabilize cells with cold Perm Buffer III buffer (BD, 558050) for 45 mins on ice. Collect cells by centrifugation (600 g, 8min) and washed twice with cold PBS. Stain cells with anti-human CD3(FITC Mouse Anti-Human CD3, BD, 555332) and anti-pSTAT1_Y701(Alexa Fluor 647 Mouse Anti-Stat1 (pY701), BD, 612597) antibodies. Detect pSTAT1 by flow cytometry (CytoFlex S) and analyze data with FlowJo and GraphPad Prism 8 software. IC50 values of test articles were determined using 4- parameter logistic equation.
Background: In flow cytometry, cells or beads pass a laser one at a time.

T2 sequence (P29597 589-875 limits assumed): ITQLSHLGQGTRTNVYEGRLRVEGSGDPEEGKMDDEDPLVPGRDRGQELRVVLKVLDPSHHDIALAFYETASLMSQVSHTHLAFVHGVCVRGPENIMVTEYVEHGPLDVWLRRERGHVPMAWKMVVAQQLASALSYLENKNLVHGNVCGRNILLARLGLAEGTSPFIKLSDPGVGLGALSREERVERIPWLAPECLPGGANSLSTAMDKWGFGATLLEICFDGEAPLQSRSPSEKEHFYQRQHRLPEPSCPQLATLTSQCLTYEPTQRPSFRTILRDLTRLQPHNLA
T1 sequence (P23458 583-855 limits assumed): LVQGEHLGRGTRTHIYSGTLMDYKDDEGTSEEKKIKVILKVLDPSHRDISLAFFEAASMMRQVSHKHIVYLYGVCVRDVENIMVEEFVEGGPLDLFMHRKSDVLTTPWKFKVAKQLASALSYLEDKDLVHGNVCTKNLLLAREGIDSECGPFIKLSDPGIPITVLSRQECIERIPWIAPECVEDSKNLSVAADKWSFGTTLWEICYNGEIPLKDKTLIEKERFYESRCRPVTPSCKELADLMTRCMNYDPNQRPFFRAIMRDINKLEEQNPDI

As to `CCn1nc(Nc2cc(NC(=O)C3CC3)ncc2C(=O)OC)c2c(OC)c(C(OC)C(F)(F)F)ccc21` (single isomer, unassigned) [Example 66B, Methyl (S*)-6-(cyclopropanecarboxamido)-4-((1-ethyl-4-methoxy-5-(2,2,2-trifluoro-1-methoxyethyl)-1H-indazol-3-yl)amino)nicotinate], the IC50 at JAK1-JH2 domain was determined as 90.7 nM. In series [1], the microsomal CLint at 1 µM amounted to 14.2 µL/min/mg and the half-life at 1 µM worked out at 1.62 h. At TYK2-JH2 domain, the IC50 was 0.13 nM and the JAK1/TYK2 selectivity is reported as 719.87. For the same compound, the IC50 in series [2] (Mus musculus, BaF3, 72 h) came to 12.5 nM.
Take `[2H]C([2H])([2H])NC(=O)c1cnc(NC(=O)[C@@H]2C[C@@H]2F)cc1Nc1cnn2ccc(COC)c(OC)c12` [Example 17, 6-((1S,2S)-2-fluorocyclopropane-1-carboxamido)-4-((4-methoxy-5-(methoxymethyl)pyrazolo[1,5-a]pyridin-3-yl)amino)-N-(methyl-d3)nicotinamide]: on JAK1-JH2 domain, the IC50 was found to be 12.7 nM. In series [1], the microsomal CLint at 1 µM came to 12.3 µL/min/mg and the half-life at 1 µM amounted to 1.87 h. Also, at TYK2-JH2 domain, the IC50 was 0.102 nM and the JAK1/TYK2 selectivity is 125.0. For the same compound, in series [2] (Mus musculus, BaF3, 72 h), the IC50 was 84.3 nM.
On to `[2H]C([2H])([2H])NC(=O)c1cnc(NC(=O)C2CC2)cc1Nc1cnn2cnc(OC)c(OC)c12` [Example 35, 6-(Cyclopropanecarboxamido)-4-((4,5-dimethoxypyrazolo[1,5-c]pyrimidin-3-yl)amino)-N-(methyl-d3)nicotinamide], for which the IC50 is 92.3 nM on JAK1-JH2 domain; 8.27 nM at TYK2-JH2 domain; 2340 nM in series [2] (Mus musculus, BaF3, 72 h). The microsomal CLint at 1 µM in series [1] was 5.72 µL/min/mg. Further, the half-life at 1 µM in series [1] is 4.04 h. Further, on TYK2-JH2 domain, the JAK1/TYK2 selectivity was found to be 11.2.
As for `[2H]C([2H])([2H])NC(=O)c1cnc(NC(=O)C2CC2)cc1Nc1cnn2cnc(C(C)C(F)(F)F)c(OC)c12` (stereo not drawn) [Example 37, 6-(Cyclopropanecarboxamido)-4-((4-methoxy-5-(1,1,1-trifluoropropan-2-yl)pyrazolo[1,5-c]pyrimidin-3-yl)amino)-N-(methyl-d3)nicotinamide], the IC50 at JAK1-JH2 domain stood at 111 nM. Moreover, in series [1], the microsomal CLint at 1 µM came to 12.3 µL/min/mg and the half-life at 1 µM turned out to be 1.88 h. On TYK2-JH2 domain, the IC50 was 1.65 nM and the JAK1/TYK2 selectivity is given as 67.1. The IC50 in series [2] (Mus musculus, BaF3, 72 h) was 768 nM.
As to `COC(=O)c1cnc(NC(=O)C2CC2)cc1Nc1nn(C)c2ccc(C(O)C(F)(F)F)c(OC)c12` (stereo not drawn) [Example 48, Methyl 6-(cyclopropanecarboxamido)-4-((4-methoxy-1-methyl-5-(2,2,2-trifluoro-1-hydroxyethyl)-1H-indazol-3-yl)amino)nicotinate], at JAK1-JH2 domain, the IC50 was found to be 33.6 nM. For the same compound, in series [1], the microsomal CLint at 1 µM was 19.3 µL/min/mg and the half-life at 1 µM worked out at 1.2 h. For the same compound, at TYK2-JH2 domain, the IC50 is 0.166 nM and the JAK1/TYK2 selectivity is recorded as 202.69. Besides, in series [2] (Mus musculus, BaF3, 72 h), the IC50 worked out at 2.19 nM.
On to `[2H]C([2H])([2H])O[C@@H](c1ccc2c(c(Nc3cc(NC(=O)C4CC4)ncc3C(=O)OC)nn2C([2H])([2H])[2H])c1OC)C(F)(F)F` [Example 53B, Methyl (S)-6-(cyclopropanecarboxamido)-4-((4-methoxy-1-(methyl-d3)-5-(2,2,2-trifluoro-1-(methoxy-d3)ethyl)-1H-indazol-3-yl)amino)nicotinate], for which, in series [1], the microsomal CLint at 1 µM was found to be 13.2 µL/min/mg and the half-life at 1 µM turned out to be 1.75 h. At TYK2-JH2 domain, the IC50 came out at 0.15 nM. In addition, the IC50 in series [2] (Mus musculus, BaF3, 72 h) worked out at 2.84 nM.
On to `COC(=O)c1cnc(NC(=O)C2CC2)cc1Nc1nsc2ccc(C(OC)C(F)(F)F)c(OC)c12` (stereo not drawn) [Example 67, Methyl 6-(cyclopropanecarboxamido)-4-((4-methoxy-5-(2,2,2-trifluoro-1-methoxyethyl)benzo[d]isothiazol-3-yl)amino)nicotinate], for which, in series [1], the microsomal CLint at 1 µM is 18.3 µL/min/mg. Besides, the half-life at 1 µM in series [1] was 1.26 h. In addition, the IC50 on TYK2-JH2 domain was 0.15 nM; in series [2] (Mus musculus, BaF3, 72 h) it was 2.5 nM.
For `[2H]C([2H])([2H])OC(c1ccc2c(c(Nc3cc(NC(=O)C4CC4)ncc3C(=O)OC)nn2C([2H])([2H])[2H])c1OC)C(F)F` (stereo not drawn) [Example 102, Methyl 6-(cyclopropanecarboxamido)-4-((5-(2,2-difluoro-1-(methoxy-d3)ethyl)-4-methoxy-1-(methyl-d3)-1H-indazol-3-yl)amino)nicotinate], the IC50 on JAK1-JH2 domain was 18.5 nM. For the same compound, in series [1], the microsomal CLint at 1 µM was 29.8 µL/min/mg and the half-life at 1 µM came to 0.776 h. Besides, on TYK2-JH2 domain, the IC50 was 0.19 nM and the JAK1/TYK2 selectivity worked out at 99.81. Moreover, the IC50 in series [2] (Mus musculus, BaF3, 72 h) is 3.9 nM.
As to `COC(=O)c1cnc(NC(=O)C2CC2)cc1Nc1nc2ccc(N3CC(OC)C3)cn2n1` [Example 107, Methyl 6-(cyclopropanecarbonylamino)-4-[[6-(3-methoxyazetidin-1-yl)-[1,2,4]triazolo[1,5-a]pyridin-2-yl]amino]pyridine-3-carboxylate], the IC50 is 0.25 nM at TYK2-JH2 domain; 27.8 nM in series [2] (Mus musculus, BaF3, 72 h); 401 nM in the series with pSTAT1.
`[2H]C([2H])([2H])CC(=O)c1cnc(NC(=O)C2CC2)cc1Nc1cnn2ccc([C@H](O)C(F)(F)F)c(OC)c12` [Example 141, (S)-N-(4-((4-methoxy-5-(2,2,2-trifluoro-1-hydroxyethyl)pyrazolo[1,5-a]pyridin-3-yl)amino)-5-(propanoyl-3,3,3-d3)pyridin-2-yl)cyclopropanecarboxamide]: the IC50 was found to be 0.075 nM on TYK2-JH2 domain; 11.3 nM in series [2] (Mus musculus, BaF3, 72 h); 177 nM with pSTAT1.
With `[2H]C([2H])(C)C(=O)c1cnc(NC(=O)C2CC2)cc1Nc1nn(C)c2ccc(C(O)C(F)(F)F)c(OC)c12` (stereo not drawn) [Example 156, N-(4-((4-methoxy-1-methyl-5-(2,2,2-trifluoro-1-hydroxyethyl)-1H-indazol-3-yl)amino)-5-(propanoyl-2,2-d2)pyridin-2-yl)cyclopropanecarboxamide], the IC50 on JAK1-JH2 domain turned out to be 14.2 nM. For the same compound, in series [1], the microsomal CLint at 1 µM worked out at 26.2 µL/min/mg and the half-life at 1 µM was 0.881 h. Besides, on TYK2-JH2 domain, the IC50 is 0.163 nM and the JAK1/TYK2 selectivity was 86.87. Besides, in series [2] (Mus musculus, BaF3, 72 h), the IC50 turned out to be 1.76 nM.
With `[2H]C([2H])([2H])OC(c1ccc2c(c(Nc3cc(NC(=O)C4CC4)ncc3C(=O)OC)nn2CCOC)c1OC)C(F)(F)F` (stereo not drawn) [Example 157, Methyl 6-(cyclopropanecarboxamido)-4-((4-methoxy-1-(2-methoxyethyl)-5-(2,2,2-trifluoro-1-(methoxy-d3)ethyl)-1H-indazol-3-yl)amino)nicotinate], in series [1], the microsomal CLint at 1 µM came out at 25.8 µL/min/mg and the half-life at 1 µM is 0.897 h. In addition, the IC50 on TYK2-JH2 domain came out at 0.15 nM. In series [2], the IC50 was 9.21 nM.
